# Measurements: patent US20240156846A1, “COMPOSITIONS AND METHODS FOR TREATING NEURODEGENERATIVE DISORDERS” (Arizona Board of Regents on Behalf of the University of …, priority 2020, published 2024)
# Entries after “also recorded” stand apart in the source; their conditions may differ.
# Tests used:
# myrosinase = conditions: cited from earlier work
# [1] = system: primary cultures of human neurons exposed to Aβ1-42 aggregates; experiment: Prevention of neuronal loss caused by Aβ1-42 aggregates (MTT assay); assay type: cell-based; conditions: compounds at 0 h, 24 h, 48 h; 1 μM Aβ1-42 aggregates at 24 h; MTT at 72 h
# Description: Next, we determined whether these compounds, administered independently or formulated in combination, could protect primary cultures of human neurons against neurotoxic effects of Aβ1-42 aggregates, an in vitro condition relevant to AD pathology. We evaluated both prevention and rescue of neuronal death by NADH, NAD+ and PEITC (FIG. 7). In both experiments, the cultured human neurons were exposed to 1 nM, 10 nM, 100 nM, 1 μM, 10 μM, 20 μM, 40 μM, 50 μM, 75 μM, and 100 μM of each compound, either individually or in equimolar combinations. […] In the prevention experiment, cultures were exposed to fresh compounds every 24 h over the 48 h timeline of this experiment (i.e., 0 h, 24 h, and 48 h) to resemble a pharmacological regimen of once daily dosing. At 24 h, we added 1 μM of Aβ1-42 aggregates to the cell culture media and measured cell viability at 72 h using the MTT assay (Online Method, FIG. 7A). […] In the rescue experiments, primary cultures of human neurons were exposed to 1 μM of Aβ1-42 aggregates at 0 h for a period of 48 h to model existing cellular damage under conditions relevant to AD. After 24 h incubation with Aβ1-42, we added NADH, NAD+, PEITC, NADH/PEITC, and NAD+/PEITC directly to the culture media containing Aβ1-42 and incubated the cultured human neurons for an additional 24 h when cell viability was measured using our MTT assay.
# To determine the optimal dosage of the two formulations for neuronal rescue and microglial phagocytosis stimulation, we treated the primary cultures of human neurons and primary cultures of human microglia in the prevention settings respectively with exhaustive combination of individual dosage of 10 μM, 20 μM, 40 μM, 50 μM, 75 μM, and 100 μM.
# [2] = system: primary cultures of human microglia exposed to Aβ1-42 aggregates; experiment: Aβ1-42 uptake (phagocytosis) by microglia, rescue setting; assay type: cell-based; conditions: 10 dosages tested
# Description: There is considerable interest in microglia-targeted therapies for AD, in part due to the phagocytotic functionality of these cells that can promote neuronal recovery and/or repair. Indeed, phagocytosis of insoluble Aβ by microglia can facilitate CNS clearance of Aβ aggregates and limit formation of amyloid plaques (Ronaldson & Davis, 2020). Indeed, Aβ can bind to receptors at the microglial cell surface, an event that can trigger release of proinflammatory cytokines such as TNF-α and IL-1β, factors that are known to cause neuronal damage (Wang et al. 2015). Additionally, Jiang and colleagues discovered that triggering receptor expressed in myeloid cells 1 (TREM1) can promote Aβ phagocytosis by microglia (Jiang et al. 2016). […] To determine if the natural compounds individually or in combination could promote phagocytosis in microglia, we designed prevention and rescue experiments to measure Aβ1-42 uptake in primary cultures of human microglia via intracellular fluorescence (Online method). […] After 24 h, we added 1 μM of Aβ1-42 aggregates to the treated media and measured cell viability at 72 h using the Aβ uptake assay (Online Method, FIG. 8A). […] Uptake of Aβ1-42 was then measured 24 h later (i.e., at the 48 h experimental time point, FIG. 8B).
# 3xTg AD mice = experiment: Treatment of 3xTg AD mice: brain Aβ, tau and proteomics; assay type: in vivo, mouse; conditions: for levels of neurotoxic Aβ42 / ratio of Aβ42 to Aβ40: 3xTg AD mice treated with individual compound; for ratio of p231-tau to total tau: 3xTg mice treated with individual compound
# [3] = system: humanized-Tau (hTau) mice; experiment: Treatment of humanized-Tau (hTau) mice: brain p231Tau; assay type: in vivo, mouse
# [4] = human subjects, after the consumption of 100 g watercress; cited from earlier work
# [5] = rat, in vivo, cited from earlier work
# [6] = cited from earlier work
smiles,measurement,setting,value
O=S(=O)(O)ON=C(Cc1ccccc1)SC1OC(CO)C(O)C(O)C1F (stereo not drawn) [2-F-2-deoxybenzylglucosinolate],inhibition of myrosinase,myrosinase,"inhibits the enzyme by trapping one of the glutamic acid residues in the active site, Glu 409"
"NC(=O)c1ccc[n+]([C@@H]2O[C@H](COP(=O)([O-])OP(=O)(O)OC[C@H]3O[C@@H](n4cnc5c(N)ncnc54)[C@H](O)[C@@H]3O)[C@@H](O)[C@H]2O)c1 [NAD+, oxidized nicotinamide adenine dinucleotide]",prevention of neuronal loss as compared to the negative control condition,[1],significantly prevented neuronal loss
same,number of dosages that significantly rescued microglial phagocytosis of Aβ1-42,[2],eight
same,levels of neurotoxic Aβ42,3xTg AD mice,significant reduction
same,ratio of Aβ42 to Aβ40,3xTg AD mice,significantly reduced; also recorded: significant reduction
same,ratio of p231-tau to total tau,3xTg AD mice,significantly reduced
"NC(=O)C1=CN([C@@H]2O[C@H](COP(=O)(O)OP(=O)(O)OC[C@H]3O[C@@H](n4cnc5c(N)ncnc54)[C@H](O)[C@@H]3O)[C@@H](O)[C@H]2O)C=CC1 [NADH, reduced nicotinamide adenine dinucleotide]",prevention of neuronal loss as compared to the negative control condition,[1],significantly prevented neuronal loss
same,number of dosages that significantly rescued microglial phagocytosis of Aβ1-42,[2],three
same,levels of neurotoxic Aβ42,3xTg AD mice,significant reduction
same,ratio of Aβ42 to Aβ40,3xTg AD mice,significantly reduced; also recorded: significant reduction
same,ratio of p231-tau to total tau,3xTg AD mice,significantly reduced
"S=C=NCCc1ccccc1 [PEITC, phenethyl isothiocyanate]",prevention of neuronal loss as compared to the negative control condition,[1],significantly prevented neuronal loss
same,levels of neurotoxic Aβ42,3xTg AD mice,significant reduction
same,ratio of Aβ42 to Aβ40,3xTg AD mice,significantly reduced; also recorded: significant reduction
same,ratio of p231-tau to total tau,3xTg AD mice,significantly reduced
same,level of hyperphosphorylated Tau (p231Tau),[3],significant reduction
same,ratio of p231Tau to Tau,[3],significant reduction
same,peak plasma concentration,[4],about 928.5±250 nM
same,bioavailability,[5]; po,90-114%
same,clearance,[5]; po,low
same,protein binding,[5]; po,high
same,bioavailability with repeated dosing,[5],Increased
O=S(=O)(O)O [Sulfate],inhibition of myrosinase,myrosinase,competitive inhibitor
CN1C(=N)N[C@](C)(c2cc(NC(=O)c3ccc(F)cn3)ccc2F)CS1(=O)=O [Verubecestat],CSF Aβ levels,[6]; patients with AD / early-stage AD,decrease CSF Aβ levels
C[C@@]1(c2cc(NC(=O)c3ccc(C#N)cn3)ccc2F)C=CSC(N)=N1 [atabecestat],cognitive assessment scores in treated patients,[6]; phase two clinical trials and long-term safety and tolerability study,trend of worsening cognitive assessment scores
CC(C)[C@H](O)C(=O)N[C@@H](C)C(=O)N[C@@H]1C(=O)N(C)CCc2ccccc21 [semagacestat],functional or cognitive ability in treated patients,[6]; phase three trial,lack of efficacy and a worsening of function and cognition
"OC[C@H]1O[C@@](CO)(O[C@H]2O[C@H](CO)[C@@H](O)[C@H](O)[C@H]2O)[C@@H](O)[C@@H]1O [sucrose, reference compound]",prevention of neuronal loss as compared to the negative control condition,[1],did not prevent any neuronal death
